Measurements reported in paper PMC7496768, “Understanding Substrate Selectivity of Phoslactomycin Polyketide Synthase by Using Reconstituted in Vitro Systems” (Chembiochem, 2020).

Target: T1, Npt (Streptomyces platensis, UniProt A0AAE6NLM9)
T1 construct: recombinant, expressed in E. coli BL21 (DE3), purified
T1 sequence (A0AAE6NLM9 1-219): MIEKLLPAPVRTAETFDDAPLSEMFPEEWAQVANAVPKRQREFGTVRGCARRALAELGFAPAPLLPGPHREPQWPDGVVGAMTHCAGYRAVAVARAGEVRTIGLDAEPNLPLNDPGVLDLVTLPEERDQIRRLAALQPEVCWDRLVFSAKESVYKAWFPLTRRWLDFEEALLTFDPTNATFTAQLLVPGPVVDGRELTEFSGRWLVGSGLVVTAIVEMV
Assay: phosphopantetheinylation of apo-ACPs
Format: biochemical
Conditions: apo-Pn ACPs as acceptor

## CC(C)(COP(=O)(O)OP(=O)(O)OC[C@H]1O[C@@H](n2cnc3c(N)ncnc32)[C@H](O)[C@@H]1OP(=O)(O)O)[C@@H](O)C(=O)NCCC(=O)NCCS [CoA-SH]
  phosphopantetheinylation of apo-ACPs: Npt serves as a bona fide Ppant transferase that is able to activate apo‐Pn_ACPs
